According to US5436260A, “Angiotensin II receptor antagonists” (Warner-Lambert Company, priority 1994, dated 1995):
Counter-ions that a name gives are not always drawn.

Target: T1, AT1 receptor (Rattus norvegicus, UniProt P25095)
T1 construct: rat liver membranes; from tissue; host or cells: rat liver membranes
T1 sequence (P25095 1-359): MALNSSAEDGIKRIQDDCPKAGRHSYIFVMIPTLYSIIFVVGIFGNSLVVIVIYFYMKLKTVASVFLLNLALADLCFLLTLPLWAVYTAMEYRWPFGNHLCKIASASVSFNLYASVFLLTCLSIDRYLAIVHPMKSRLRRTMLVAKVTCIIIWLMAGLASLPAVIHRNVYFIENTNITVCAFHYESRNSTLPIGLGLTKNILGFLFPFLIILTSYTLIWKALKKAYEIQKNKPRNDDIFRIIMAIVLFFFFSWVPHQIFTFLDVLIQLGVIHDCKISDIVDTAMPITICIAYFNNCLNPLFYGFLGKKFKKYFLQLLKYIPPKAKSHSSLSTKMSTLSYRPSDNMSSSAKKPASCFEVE
Assay: [^3 H]angiotensin II binding to rat liver membranes (AT1 test)
Settings: inhibition of [^3 H]angiotensin II binding
Method: The compounds of Formula I or Ia are antagonists of angiotensin II. Dudley, D. T., et al, Molecular Pharmacology 1990;38:370-377 reported the existence of 2 subclasses of angiotensin II binding sites in rabbit adrenal gland and uterus and in the rat liver which differ in their tissue distribution and affinity for various peptide and nonpeptide ligands. Thus, the compounds of Formula I or Ia were tested for their ability to inhibit [^3 H]angiotensin II binding to rat liver membranes (AT1 test) according to the methods described by Dudley, D. T., et al, Molecular Pharmacology 1990;38:370-7. […] It is well established that compounds which antagonize the effect of angiotensin II at the AT1 receptor have value for treatment of hypertension and heart failure.

Row | SMILES | IC50 [µM]
1 | CCCCCCN1C(=O)N(CCCC)C(=O)/C1=C/c1cnc(CCCC)n1Cc1ccc(C(=O)OC)cc1 [Example 35, Methyl Z-4-[[2-butyl-5-[(1-butyl-3-hexyl-2,5-dioxo-4-imidazolidinylidene)methyl]-1H-imidazol-1-yl]methyl]benzoate monohydrochloride] | 0.0402
2 | CCCCc1ncc(/C=C2/C(=O)N(COC)C(=O)N2Cc2csc(C)n2)n1Cc1ccc(C(=O)OC)cc1 [Example 56, Methyl Z-4-[[2-butyl-5-[[1-(methoxymethyl)-3-[(2-methyl-4-thiazolyl)methyl]-2,5-dioxo-4-imidazolidinylidene]methyl]-1H-imidazol-1-yl]methyl]benzoate dihydrochloride] | 0.0478
3 | CCCCc1ncc(/C=C2/C(=O)N(CCCC)C(=O)N2Cc2cccs2)n1Cc1ccc(C(=O)OC)cc1 [Example 23, Methyl Z-4-[[2-butyl-5-[[1-butyl-2,5-dioxo-3-(2-thienylmethyl)-4-imidazolidinylidene]methyl]-1H-imidazol-1-yl]methyl]benzoate monohydrochloride] | 0.00339
4 | CCCCc1ncc(/C=C2/C(=O)N(CCCC(F)(F)F)C(=O)N2CCCC(F)(F)F)n1Cc1ccc(C(=O)OC)cc1 [Example 113, dihydrochloride] | 0.0183
5 | CCCCc1ncc(/C=C2/C(=O)N(CCCC)C(=O)N2Cc2csc(C)n2)n1Cc1ccc(C2(C(=O)O)CCCC2)cc1 [Example 85] | 0.00186
6 | CCCCc1ncc(/C=C2/C(=O)N(CCCC)C(=O)N2Cc2csc(C)n2)n1Cc1ccc(C(=O)OC)cc1 [Example 68, Methyl Z-4-[[2-butyl-5-[[1-butyl-3-[(2-methyl-4-thiazolyl)methyl]-2,5-dioxo-4-imidazolidinylidene]methyl]-1H-imidazol-1-yl]methyl]benzoate dihydrochloride] | 0.0042
7 | CCCCc1ncc(/C=C2/C(=O)N(CCCC)C(=O)N2Cc2csc(Br)c2)n1Cc1ccc(C(=O)OC)cc1 [Example 81, Methyl Z-4-[[5-[[3-[(5-bromo-3-thienyl)methyl]-1-butyl-2,5-dioxo-4-imidazolidinylidene]methyl]-2-butyl-1H-imidazol-1-yl]methyl]benzoate monohydrochloride] | 0.0254
8 | CCCCc1ncc(/C=C2\C(=O)NC(=O)N2c2ccccc2)n1Cc1ccc(C(=O)O)cc1 [Example 5, (E)-4-[[2-Butyl-5-[(2,5-dioxo-3-phenyl-4-imidazol-imidazolidinylidene)methyl]-1H-imidazole-1-yl]methyl]benzoic acid] | 0.643
9 | CCCCCCN1C(=O)/C(=C/c2cnc(CCCC)n2Cc2ccc(C(=O)OC)cc2)N(CCCC)C1=O [Example 48, Methyl Z-4-[[2-butyl-5-[(3-butyl-1-hexyl-2,5-dioxo-4-imidazolidinylidene)methyl]-1H-imidazol-1-yl]methyl]benzoate monohydrochloride] | 0.0146
10 | CCCCc1ncc(/C=C2/C(=O)NC(=O)N2Cc2cccs2)n1Cc1ccc(C(=O)O)cc1 [Example 6b] | 0.00143
11 | CCCCc1ncc(/C=C2\NC(=O)N(COC)C2=O)n1Cc1ccc(C(=O)OC)cc1 [Example 53] | > 1
12 | CCCCc1ncc(/C=C2/C(=O)N(CCCC)C(=O)N2Cc2ccccc2Cl)n1Cc1ccc(C(=O)OC)cc1 [Example 61, Methyl Z-4-[[2-butyl-5-[[1-butyl-3-[(2-chlorophenyl)methyl]-2,5-dioxo-4-imidazolidinylidene]methyl]-1H-imidazol-1-yl-]methyl]benzoate monohydrochloride] | 0.0598
13 | CCCCc1ncc(/C=C2\C(=O)NC(=O)N2CCCC)n1Cc1ccc(-c2ccccc2-c2nn[nH]n2)cc1 [Example 92] | 0.00272
14 | CCCCc1ncc(/C=C2/C(=O)N(CCCC)C(=O)N2Cc2nn[nH]n2)n1Cc1ccc(C(=O)OC)cc1 [Example 44, Methyl Z-4-[[2-butyl-5-[[1-butyl-2,5-dioxo-3-(1H-tetrazol-5-ylmethyl)-4-imidazolidinylidene]methyl]-1H-imidazol-1-yl]methyl]benzoate monohydrochloride] | 0.0417
15 | CCCCc1ncc(/C=C2/C(=O)N(CCCC)C(=O)N2Cc2ccc(-c3ccccc3)cc2)n1Cc1ccc(C(=O)OC)cc1 [Example 102, Methyl Z-4-[[5-[[3-[(1,1'-biphenyl)-4-ylmethyl]-1-butyl-2,5-dioxo-4-imidazolidinylidene]methyl]-2-butyl-1H-imidazol-1-yl]methyl]benzoate] | > 1
16 | CCCCc1ncc(/C=C2\C(=O)NC(=O)N2CCCCO)n1Cc1ccc(C(=O)OC)cc1 [Example 17a] | 0.0983
17 | CCCCc1ncc(/C=C2/C(=O)N(CCCC)C(=O)N2Cc2nccn2Cc2ccccc2)n1Cc1ccc(C(=O)OC)cc1 [Example 99] | 0.135

The remaining lines, values ahead:

Row | IC50 [µM] | SMILES
18 | 0.00248 | CCCCc1ncc(/C=C2\C(=O)NC(=O)N2CCCC)n1Cc1ccc(-c2nn[nH]n2)cc1 [Example 76b, E-1-Butyl-5-[[2-butyl-3-[[4-(1H-tetrazol-5-yl)phenyl]methyl]-3H-imidazol-4-yl]methylene]-2,4-imidazolidinedione]
19 | 0.00732 | CCCCc1ncc(/C=C2\C(=O)NC(=O)N2CCCC)n1Cc1ccc(C(=O)OC)cc1Cl [Example 87b]
20 | 0.5 | CCCCc1nc(Br)c(/C=C2\C(=O)NC(=O)N2CCCC)n1Cc1ccc(-c2ccccc2C(=O)OC)cc1 [Example 97b, Methyl E-4'-[[4-bromo-2-butyl-5-[(3-butyl-2,5-dioxo-4-imidazolidinylidene)methyl]-1H-imidazol-1-yl]methyl][1,1'-biphenyl]-2-carboxylate]
21 | 0.528 | CCCCc1ncc(/C=C2\C(=O)NC(=O)N2CCCC)n1Cc1ccc(C2(C(=O)OC)CCCCC2)cc1 [Example 88b, Methyl E-1-[4-[[2-butyl-5-[[3-butyl-2,5dioxo-4-imidazolidinylidene]methyl]-1H-imidazol-1-yl]methyl]phenyl]cyclohexanecarboxylate]
22 | 0.00263 | CCCCc1ncc(/C=C2\C(=O)NC(=O)N2Cc2cccs2)n1Cc1ccc(C2(C(=O)O)CCCC2)cc1 [Example 26a, E-1-[4-[[2-butyl-5-[[2,5-dioxo-3-(2-thienylmethyl)-4-imidazolidinylidene]methyl]-1H-imidazol-1-yl]methyl]phenyl]cyclopentanecarboxylic acid]
23 | 0.00222 | CCCCc1ncc(/C=C2/C(=O)NC(=O)N2Cc2cccs2)n1Cc1ccc(C2(C(=O)O)CCCC2)cc1 [Example 26b, Z-1-[4-[[2-butyl-5-[[2,5-dioxo-3-(2-thienylmethyl)-4-imidazolidinylidene]methyl]-1H-imidazol-1-yl]methyl]phenyl]cyclopentanecarboxylic acid]
24 | 0.00418 | CCCCc1ncc(/C=C2\C(=O)NC(=O)N2CCCC)n1Cc1ccc(NS(=O)(=O)C(F)(F)F)cc1 [Example 71b, E-N-[4-[[2-butyl-5-[(3-butyl-2,5-dioxo-4-imidazolidinylidene)methyl]-1H-imidazol-1-yl]methyl]phenyl]-1,1,1-trifluoromethanesulfonamide]
25 | 0.00336 | CCCCc1ncc(/C=C2\C(=O)NC(=O)N2Cc2ccc(Cl)cc2)n1Cc1ccc(C(=O)O)cc1 [Example 20a, E-4-[[2-butyl-5-[[3-[(4-chlorophenyl)methyl]-2,5-dioxo-4-imidazolidinylidene]methyl]-1H-imidazol-1-yl]methyl]benzoic acid]
